Data taken from article PMC3809102 (Current cancer drug targets, 2010).

Tests used:
[1] = target: Ku70 (Homo sapiens, UniProt P12956); assay: surface plasmon resonance; type: binding
[2] = target: T1, SIRT1 (Homo sapiens, UniProt Q96EB6); assay: cell-free SIRT1 FRET-based screening assay; type: biochemical
T1 sequence (Q96EB6 2-747): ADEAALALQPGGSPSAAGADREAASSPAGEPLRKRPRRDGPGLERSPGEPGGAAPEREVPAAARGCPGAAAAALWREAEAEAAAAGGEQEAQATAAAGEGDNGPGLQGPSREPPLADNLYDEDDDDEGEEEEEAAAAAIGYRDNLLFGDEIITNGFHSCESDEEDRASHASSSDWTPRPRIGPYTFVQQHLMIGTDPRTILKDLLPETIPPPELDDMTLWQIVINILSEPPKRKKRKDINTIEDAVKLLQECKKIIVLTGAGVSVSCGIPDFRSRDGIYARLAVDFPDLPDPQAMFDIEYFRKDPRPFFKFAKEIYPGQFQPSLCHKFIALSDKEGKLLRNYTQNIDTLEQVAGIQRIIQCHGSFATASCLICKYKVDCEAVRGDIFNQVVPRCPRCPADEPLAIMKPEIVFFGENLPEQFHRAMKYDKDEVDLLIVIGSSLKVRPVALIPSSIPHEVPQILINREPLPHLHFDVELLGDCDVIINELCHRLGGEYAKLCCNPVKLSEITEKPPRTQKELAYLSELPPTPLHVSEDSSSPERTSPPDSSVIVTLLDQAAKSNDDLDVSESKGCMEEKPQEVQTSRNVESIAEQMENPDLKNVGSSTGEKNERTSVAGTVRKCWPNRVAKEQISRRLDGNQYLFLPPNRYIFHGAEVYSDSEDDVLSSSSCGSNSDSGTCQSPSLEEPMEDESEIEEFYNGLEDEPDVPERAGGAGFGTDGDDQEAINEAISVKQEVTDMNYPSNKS

Sequence of Ku70 (P12956 2-609): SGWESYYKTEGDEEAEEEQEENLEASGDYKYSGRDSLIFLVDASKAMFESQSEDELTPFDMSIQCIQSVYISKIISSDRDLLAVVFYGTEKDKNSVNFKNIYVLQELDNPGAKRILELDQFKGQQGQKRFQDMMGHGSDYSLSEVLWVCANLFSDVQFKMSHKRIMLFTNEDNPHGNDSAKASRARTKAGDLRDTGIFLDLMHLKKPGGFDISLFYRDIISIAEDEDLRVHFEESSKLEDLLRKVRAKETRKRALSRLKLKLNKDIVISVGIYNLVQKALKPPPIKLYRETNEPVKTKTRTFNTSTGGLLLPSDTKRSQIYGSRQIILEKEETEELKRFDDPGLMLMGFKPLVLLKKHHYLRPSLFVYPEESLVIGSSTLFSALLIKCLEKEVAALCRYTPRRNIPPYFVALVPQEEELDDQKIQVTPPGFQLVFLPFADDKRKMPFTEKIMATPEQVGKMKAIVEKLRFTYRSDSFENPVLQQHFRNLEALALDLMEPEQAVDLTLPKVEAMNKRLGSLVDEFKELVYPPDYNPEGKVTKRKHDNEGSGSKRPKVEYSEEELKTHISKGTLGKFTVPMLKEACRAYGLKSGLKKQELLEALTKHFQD

Kd [1] [µM] | Compound | cell-free SIRT1 FRET-based screening assay (Cayman kit), 15 μM [2]
0.17 | MI-319 | –
169 | COc1ccc(C2=NC(c3ccc(Cl)cc3)C(c3ccc(Cl)cc3)N2C(=O)N2CCNC(=O)C2)c(OC(C)C)c1 (racemic) [Nutlin-3, (±)-4-[4,5-Bis(4-chlorophenyl)-2-(2-isopropoxy-4-methoxy-phenyl)-4,5-dihydro-imidazole-1-carbonyl]-piperazin-2-one] | MI-219, MI-319 and Nutlin-3 significantly suppressed SIRT1 activity while the inactive analog MI-10 did not
